Experimental data published in publication PMC12292521, “Discovery of a Potent Antimicrobial Peptide Through Rational Design: A New Frontier in Pathogen Control” (Biomolecules, 2025).
≈ marks a conversion by molar mass, not a printed value. Where two headings read alike, the source gives them in different places. Peptide text beside a SMILES is read from it.

Legend:
[1] = system: Acinetobacter baumannii (CRAB); type: cell-based
Method: (§1) Therefore, the minimum inhibitory concentration (MIC) and MBC were evaluated. […] Subsequently, the antibiofilm activity of the peptide was tested according to Festa et al.. Specifically, two different concentrations of peptide were used, corresponding to ½ and ¼ of the estimated MIC value, which guarantee the optimal bacterial growth conditions necessary to allow biofilm production. Biofilm production (%) was calculated based on Optical Density (measured at 630 nm) outputs, compared to the control group.

[2] = system: Enterococcus faecium (VREfm); type: cell-based; conditions: broth microdilution, 96-well, RKW 1-75 μM
Method: as §1

[3] = system: Staphylococcus aureus (MRSA); type: cell-based; conditions: for MIC: broth microdilution, 96-well, RKW 1-75 μM
Method: as §1

[4] = system: S. aureus (MRSA) biofilm; assay: Antibiofilm activity (crystal violet); type: cell-based, Staphylococcus aureus; conditions: RKW at ½ and ¼ MIC (25 and 12.5 μM); OD 630 nm vs control; three independent experiments; ANOVA p < 0.01; greatest inhibition at ¼ MIC
Method: as §1
(§2) To compare the percentages of biofilm production across different samples, a one-way analysis of variance (ANOVA) was conducted using Prism v. 10.0 (GraphPad, Graph-Pad Software, La Jolla, CA, USA). Significant differences between sample pairs were identified with Tukey’s post hoc test (p < 0.05).

[5] = system: P. aeruginosa biofilm; assay: Antibiofilm activity (crystal violet); type: cell-based, Pseudomonas aeruginosa; conditions: RKW at ½ and ¼ MIC (10 and 5 μM); OD 630 nm vs control; three independent experiments; ANOVA p < 0.05; greatest inhibition at ¼ MIC
Method: as §1, §2

[6] = 100 µM peptide, 37 °C, 24 h, RP-HPLC C18, absorbance 280 nm, peak area vs time 0, three independent studies
Method: A total of 3.7 mg of peptide was dissolved in 1 mL of Milli-Q H2O to obtain a 2 mM stock solution. A 5% solution of Newborn Calf Serum (NCS) was prepared in Dulbecco’s phosphate-buffered saline (DPBS) (v/v) and then subjected to heat-inactivation by incubating the solution at 57 °C for 45 min (Hi-NCS). Therefore, 100 µM of peptide was incubated in 5% Hi-NCS at 37 °C for 24 h in DPBS. […] Therefore, the samples were centrifuged at 13,000 rpm for 5 min, and the supernatants were diluted in an equal volume of water. Finally, 200 µL of the collected solutions were loaded onto a μBondapak reversed-phase C18 column (Waters, 3.9 mm × 300 mm) connected to an HPLC system (Shimadzu, Milan, Italy), using a linear gradient of acetonitrile (5–95%) in water containing 0.1% TFA at a flow rate of 1 mL/min, and absorbance was detected at 280 nm. […] Samples containing only Hi-NCS were also analyzed. The same experiments were performed in the presence of NCS, not subjected to the heat inactivation treatment. Results are the average of three independent studies.

[7] = system: Pseudomonas aeruginosa ATCC 15442; assay: Quantitative suspension test, bactericidal activity, BS EN 1276:2019; type: cell-based; set-up: key to Bactericidal activity verdict: Active: For bacteria: ACTIVE if log R ≥ 5 according to BS EN 1276:2019; Not active: For bacteria: ACTIVE if log R ≥ 5 according to BS EN 1276:2019; conditions: 60 min, 37 °C, BSA 0.3 g/L
Text: (§3) The method is based on the suspension test according to BS EN 1276:2019, which specifies a quantitative suspension analysis for the evaluation of the bactericidal activity of chemical disinfectants and antiseptics used in food, industrial, domestic, and institutional areas against a panel of microorganisms under conditions that more closely simulate practical use. Briefly, S. aureus ATCC 6538, P. aeruginosa ATCC 15442, and Staphylococcus epidermidis ATCC 12228 were used as test organisms at a bacterial concentration of 1.0 × 10^8 colony-forming units (CFU) per mL (CFU/mL). In the test, BSA (Bovine Serum Albumin) (0.3 g/L) was used as an interfering substance to mimic clean conditions. […] The reaction mixture was incubated at 37 °C for 60 min before transferring each sample to a tube containing a neutralizer solution consisting of 30 g/L polysorbate 80, 1 g/L sodium thiosulfate, 3 g/L lecithin, 1 g/L tryptone, 8.5 g/L NaCl, 100 mL/L phosphate buffer and water. The negative control (untreated cells) was prepared using PBS instead of biocides. The solutions were then plated onto Tryptone Soy Agar (TSA) and incubated at 37 °C for 48 h to determine the logarithmic CFU/mL reduction, according to the following Equation:(2) log R = log (N0) − log (Na) where R refers to the reduction in viability, N refers to the number of CFU/mL in the test mixture at the beginning of the contact time, and Na refers to the number of CFU/mL in the test mixture at the end of the contact time. […] The test method and the minimum requirements for fungicidal activity of chemical disinfectant and antiseptic products were performed according to BS EN 1650:2019. The fungicidal activity was studied using the vegetative cells of Candida albicans ATCC 10231 and the spores of Aspergillus brasiliensis ATCC 16404 as test organisms. […] The mixture was maintained at 37 °C for a contact time of 60 min. At the end of this contact time, an aliquot was taken, and the fungicidal activity was immediately neutralized with a solution consisting of 30 g/L polysorbate 80, 1 g/L sodium thiosulfate, 3 g/L lecithin, 1 g/L tryptone, 8.5 g/L NaCl, 100 mL/L phosphate buffer and water. The samples were then plated onto malt extract agar (MEA) and incubated at 30 °C for 48 h to determine the numbers of surviving fungi as the logarithmic CFU/mL reduction, calculated according to Equation (2).

[8] = system: Staphylococcus aureus ATCC 6538; assay: as above; type: cell-based; set-up: key to Bactericidal activity verdict: Active: For bacteria: ACTIVE if log R ≥ 5 according to BS EN 1276:2019; Not active: For bacteria: ACTIVE if log R ≥ 5 according to BS EN 1276:2019; conditions: 60 min, 37 °C, BSA 0.3 g/L
Text: as §3

[9] = inoculum 5 × 10^3 CFU/mL (3 Log)
[10] = inoculum 5 × 10^5 CFU/mL (5 Log)

CC[C@H](C)[C@H](NC(=O)[C@H](Cc1c[nH]c2ccccc12)NC(=O)[C@H](CCCCN)NC(=O)[C@@H](N)CCCNC(=N)N)C(=O)N[C@@H](CC(C)C)C(=O)N[C@@H](CCCCN)C(=O)N[C@@H](Cc1c[nH]c2ccccc12)C(=O)N[C@@H](CC(C)C)C(=O)N[C@@H](CCCNC(=N)N)C(=O)N[C@H](C(=O)N[C@@H](Cc1c[nH]c2ccccc12)C(=O)N[C@@H](CCCCN)C(=O)N[C@@H](CCCCN)C(N)=O)[C@@H](C)O [RKW] (H-RKWILKWLRTWKK-NH2; N-terminus assumed)
MBC [1]: 50 µM (≈ 92.1 µg/mL)
MIC [2, 9]: 20 µM (≈ 36.8 µg/mL)
MIC [2, 10]: 20 µM (≈ 36.8 µg/mL)
MBC [3]: 50 µM (≈ 92.1 µg/mL)
MIC [3, 9]: 50 µM (≈ 92.1 µg/mL)
MIC [3, 10]: 50 µM (≈ 92.1 µg/mL)
Biofilm production [4]: significantly inhibited the biofilm production
Biofilm production [5]: significantly inhibited the biofilm production
Stability of RKW in heat-inactivated serum (Hi-NCS) ([6]; 5% Hi-NCS (57 °C, 45 min) in DPBS): no peptide breakage
Stability of RKW in serum, not heat-inactivated (NCS) ([6]; 5% NCS in DPBS): complete degradation pattern
Bactericidal activity verdict ([7]; RKW 5 µM): Active
Na (CFU/mL at the end of the contact time) ([7]; RKW 5 µM): < 1.40 × 10^2 CFU/mL
Bactericidal activity verdict ([7]; RKW 10 µM): Active
Na (CFU/mL at the end of the contact time) ([7]; RKW 10 µM): < 1.40 × 10^2 CFU/mL
Bactericidal activity verdict ([7]; RKW 20 µM): Active
Na (CFU/mL at the end of the contact time) ([7]; RKW 20 µM): < 1.40 × 10^2 CFU/mL
Bactericidal activity verdict ([7]; RKW 50 µM): Active
Na (CFU/mL at the end of the contact time) ([7]; RKW 50 µM): < 1.40 × 10^2 CFU/mL
Bactericidal activity verdict ([7]; RKW 100 µM): Active
Na (CFU/mL at the end of the contact time) ([7]; RKW 100 µM): < 1.40 × 10^2 CFU/mL
Bactericidal activity verdict ([8]; RKW 5 µM): Na = 1.11 × 10^5 log Na = 5.10 log R = 2.25 Not active
Na (CFU/mL at the end of the contact time) ([8]; RKW 5 µM): 1.11 × 10^5 CFU/mL
Bactericidal activity verdict ([8]; RKW 10 µM): Na = 5.10 × 10^4 log Na = 4.71 log R = 2.59 Not active
Na (CFU/mL at the end of the contact time) ([8]; RKW 10 µM): 5.10 × 10^4 CFU/mL
Bactericidal activity verdict ([8]; RKW 20 µM): Na= 1.47 × 10^4 log Na = 4.20 log R = 3.13 Not active
Na (CFU/mL at the end of the contact time) ([8]; RKW 20 µM): 1.47 × 10^4 CFU/mL
Na (CFU/mL at the end of the contact time) ([8]; RKW 50 µM): 1.47 × 10^4 CFU/mL
Na (CFU/mL at the end of the contact time) ([8]; RKW 100 µM): 1.47 × 10^4 CFU/mL
